Our source for the EC50 values is US10550102B2, “Indane and indoline derivatives and the use thereof as soluble guanylate cyclase activators” (NOVARTIS AG, priority 2014, dated 2020).

Where only a bound is given, the exact number is not on record here.

The target of one assay is soluble guanylate cyclase (human GUCYA3 and GUCYB3) overexpressed in CHO cells (Homo sapiens (Human), UniProt Q02153). The assay can be described thus: CHO cellular assay (cGMP production, Cisbio cGMP HTRF kit). Type of assay: cell-based. Conditions: CHO GUCY clone 8E10, cGMP production, assay buffer with 1 mM IBMX and 20 uM ODQ, 1 h room temperature; minimum quantification limit 0.5 nM (listed 0.5 nM means ≤0.5 nM). The essentials: (§1)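 Stable CHO-K1 clone 8E10 expressing human sGC (GUCYA3/GUCYB3), 3000 cells/well, exposed 1 h at room temperature to activators in HBSS, 0.1% BSA, 1 mM IBMX, 20 uM ODQ, 0.5% DMSO final. cGMP was measured by HTRF and interpolated from a standard curve. EC50 came from a 4-parameter sigmoidal fit.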
soluble guanylate cyclase (human GUCYA3 and GUCYB3) overexpressed in CHO cells (Homo sapiens (Human), UniProt Q02153), sequence (Q02108 whole entry partner): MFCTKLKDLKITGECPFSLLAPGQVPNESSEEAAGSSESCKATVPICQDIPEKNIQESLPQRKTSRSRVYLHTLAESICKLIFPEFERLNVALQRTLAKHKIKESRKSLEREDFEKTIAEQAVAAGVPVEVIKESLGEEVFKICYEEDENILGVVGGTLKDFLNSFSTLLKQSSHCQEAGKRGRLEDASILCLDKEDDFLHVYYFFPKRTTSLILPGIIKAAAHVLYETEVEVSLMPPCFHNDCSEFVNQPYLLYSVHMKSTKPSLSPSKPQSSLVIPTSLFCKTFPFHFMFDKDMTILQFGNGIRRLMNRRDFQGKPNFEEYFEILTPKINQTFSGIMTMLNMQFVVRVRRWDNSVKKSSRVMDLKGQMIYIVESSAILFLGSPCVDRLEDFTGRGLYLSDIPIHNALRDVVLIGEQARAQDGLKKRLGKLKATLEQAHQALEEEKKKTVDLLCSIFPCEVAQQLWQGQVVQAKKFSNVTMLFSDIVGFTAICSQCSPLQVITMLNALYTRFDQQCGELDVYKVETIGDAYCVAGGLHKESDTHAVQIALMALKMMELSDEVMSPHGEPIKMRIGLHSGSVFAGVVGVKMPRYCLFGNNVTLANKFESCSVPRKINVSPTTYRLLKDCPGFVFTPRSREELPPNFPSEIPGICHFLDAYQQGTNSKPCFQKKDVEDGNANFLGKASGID
soluble guanylate cyclase (human GUCYA3 and GUCYB3) overexpressed in CHO cells (Homo sapiens (Human), UniProt Q02153), sequence (Q02153 whole entry): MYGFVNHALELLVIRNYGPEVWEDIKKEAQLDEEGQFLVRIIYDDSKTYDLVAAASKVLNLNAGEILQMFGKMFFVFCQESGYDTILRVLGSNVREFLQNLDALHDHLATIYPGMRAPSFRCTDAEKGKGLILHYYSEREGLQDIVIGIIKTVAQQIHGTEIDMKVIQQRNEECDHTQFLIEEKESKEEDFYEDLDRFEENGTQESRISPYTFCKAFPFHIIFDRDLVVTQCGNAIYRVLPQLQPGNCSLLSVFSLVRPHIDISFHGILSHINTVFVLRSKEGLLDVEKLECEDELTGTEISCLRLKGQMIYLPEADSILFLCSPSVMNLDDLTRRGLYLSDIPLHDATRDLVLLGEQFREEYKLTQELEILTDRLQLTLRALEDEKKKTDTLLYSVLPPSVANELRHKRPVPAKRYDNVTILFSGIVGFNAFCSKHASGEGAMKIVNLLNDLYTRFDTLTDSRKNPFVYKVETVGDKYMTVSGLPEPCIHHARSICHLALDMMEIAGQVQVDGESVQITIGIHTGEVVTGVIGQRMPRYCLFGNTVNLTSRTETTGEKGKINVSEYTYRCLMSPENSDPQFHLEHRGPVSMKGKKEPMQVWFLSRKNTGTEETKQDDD
By EC50 is commonly meant the midpoint of the concentration-response curve. In turn, `CCc1cc(CN2CC(C)c3cccc(-c4cccc(-n5ncc(C(=O)O)c5CC)n4)c32)ccc1C1CCN(C(=O)[C@H](C)O)CC1` (single isomer, unassigned) [Example 17b] registered an EC50 not above 0.5 nM.

Turning to `CCc1cc(O[C@H]2CCc3cccc(-c4cccc(-n5ncc(C(=O)O)c5CC)n4)c32)ccc1C1CCN(C(=O)C(C)CCO)CC1` (single isomer, unassigned) [Example 32b], the EC50 was not above 0.5 nM.

In the case of `CCc1cc(CN2CC(C)c3cccc(-c4cccc(-n5ncc(C(=O)O)c5CC)n4)c32)ccc1C1CCN(C(=O)C2CC2)CC1` (single isomer, unassigned; (-)) [(−)-20-1, (−)-1-(6-(1-(4-(1-(Cyclopropanecarbonyl)piperidin-4-yl)-3-ethylbenzyl)-3-methylindolin-7-yl)pyridin-2-yl)-5-ethyl-1H-pyrazole-4-carboxylic acid], the EC50 is not above 0.5 nM.

As to `CCc1cc(CN2CC(C)c3cccc(-c4cccc(-n5ncc(C(=O)O)c5C)n4)c32)ccc1C1CCN(C(=O)C2CC2)CC1` (single isomer, unassigned; (-)) [(−)-20-3, (−)-1-(6-(1-(4-(1-(Cyclopropanecarbonyl)piperidin-4-yl)-3-ethylbenzyl)-3-methylindolin-7-yl)pyridin-2-yl)-5-methyl-1H-pyrazole-4-carboxylic acid], the EC50 was not above 0.5 nM.

In turn, `Cc1cc(C2CCN(C(=O)C3CC3)CC2)ccc1OC1CCc2cccc(-c3cccc(-n4ncc(C(=O)O)c4C(F)(F)F)n3)c21` (single isomer, unassigned; (-)) [Example 3b] displayed an EC50 of 6.9 nM.

Turning to `O=C(O)c1cnn(-c2cccc(-c3cccc4c3C(Oc3ccc5c(c3)CCN(Cc3ccccn3)C5)CC4)n2)c1C(F)(F)F` (single isomer, unassigned; (-)) [Example 4b, (−)-1-(6-(3-((2-(Pyridin-2-ylmethyl)-1,2,3,4-tetrahydroisoquinolin-6-yl)oxy)-2,3-dihydro-1H-inden-4-yl)pyridin-2-yl)-6-(trifluoromethyl)-1H-pyrazole-4-carboxylic Acid], the EC50 was found to be 116 nM.

Regarding `CCc1cc(CN2CC(C)c3cccc(-c4cccc(-n5ncc(C(=O)O)c5C(F)(F)F)n4)c32)ccc1C1CCN(C(=O)C2CC2)CC1` (single isomer, unassigned; (-)) [Example 19b, (−)-1-(6-(1-(4-(1-(Cyclopropanecarbonyl)piperidin-4-yl)-3-ethylbenzyl)-3-methylindolin-7-yl)pyridin-2-yl)-5-(trifluoromethyl)-1H-pyrazole-4-carboxylic Acid], the EC50 is not above 0.5 nM.

With `CCc1cc(NC2CCc3cccc(-c4cccc(-n5ncc(C(=O)O)c5CC)n4)c32)ccc1C1CCN(C(=O)[C@H](C)O)CC1` (single isomer, unassigned; (-)) [Example 48b], a half-maximal response (EC50) required 11 nM.

The compound `CCC[C@H](O)C(=O)N1CCC(c2ccc(NC3CCc4cccc(-c5cccc(-n6ncc(C(=O)O)c6CC)n5)c43)cc2CC)CC1` (single isomer, unassigned; (-)) [Example 49b] yielded a concentration giving a half-maximal response (EC50) of 20 nM.

In the case of `O=C(O)c1cnn(-c2cccc(-c3cccc4c3C(Oc3ccc(C5CCN(C(=O)C6CC6)CC5)cc3C(F)(F)F)CC4)n2)c1C(F)(F)F` (single isomer, unassigned; enantiomer-1) [61. b). (enantiomer-1), (+)- or (−)-1-(6-(3-(4-(1-(Cyclopropanecarbonyl)piperidin-4-yl)-2-(trifluoromethyl)phenoxy)-2,3-dihydro-1H-inden-4-yl)pyridin-2-yl)-5-(trifluoromethyl)-1H-pyrazole-4-carboxylic acid], a half-maximal effect (EC50) was put at 15 nM.

With `O=C(O)c1cnn(-c2cccc(-c3cccc4c3C(Oc3ccc(C5CCN(C(=O)C6CC6)CC5)cc3C(F)(F)F)CC4)n2)c1C(F)(F)F` (single isomer, unassigned; enantiomer-2) [61. b). (enantiomer-2), (−)- or (+)-1-(6-(3-(4-(1-(cyclopropanecarbonyl)piperidin-4-yl)-2-(trifluoromethyl)phenoxy)-2,3-dihydro-1H-inden-4-yl)pyridin-2-yl)-5-(trifluoromethyl)-1H-pyrazole-4-carboxylic acid], a half-maximal effect (EC50) was put at 2 nM.

The compound `Cc1cc(C2CCN(C(=O)C3CC3)CC2)ccc1CN1CCc2cccc(-c3cccc(-n4ncc(C(=O)O)c4C)n3)c21` [Example 21-1, 1-(6-(1-(4-(1-(Cyclopropanecarbonyl)piperidin-4-yl)-2-methylbenzyl)indolin-7-yl)pyridin-2-yl)-5-methyl-1H-pyrazole-4-carboxylic acid] displayed an EC50 not above 0.5 nM.

In turn, “(−)-Ethyl-1-(6-(3-((3-ethyl-4-(1-(isopropoxycarbonyl)piperidin-4-yl)phenyl)amino)-2,3-dihydro-1H-inden-4-yl)pyridin-2-yl)-1H-pyrazole-4-carboxylic Acid [Example 51b]” gave an EC50 of 3 nM.

The target of another assay is soluble guanylate cyclase (human GUCYA3 and GUCYB3) overexpressed in CHO cells (Homo sapiens (Human), UniProt Q02108+Q02153). The assay is described as above. Format: cell-based. Conditions: CHO GUCY clone 8E10, cGMP production, assay buffer with 1 mM IBMX and 20 uM ODQ, 1 h room temperature; minimum quantification limit 0.5 nM (listed 0.5 nM means ≤0.5 nM); read-out: EC50. The essentials: as §1
soluble guanylate cyclase (human GUCYA3 and GUCYB3) overexpressed in CHO cells (Homo sapiens (Human), UniProt Q02108+Q02153), sequence (Q02108 whole entry partner): as the sequence (Q02108 whole entry partner) above
soluble guanylate cyclase (human GUCYA3 and GUCYB3) overexpressed in CHO cells (Homo sapiens (Human), UniProt Q02108+Q02153), sequence (Q02153 whole entry): as the sequence (Q02153 whole entry) above
Consider `CCc1cc(O[C@H]2CCc3cccc(-c4cccc(-n5ncc(C(=O)O)c5CC)n4)c32)ccc1C1CCN(C(=O)OCC2CC2)CC1` [Example 64-6, (S)-1-(6-(3-(4-(1-((Cyclopropylmethoxy)carbonyl)piperidin-4-yl)-3-ethylphenoxy)-2,3-dihydro-1H-inden-4-yl)pyridin-2-yl)-5-ethyl-1H-pyrazole-4-carboxylic acid], for which the EC50 was found to be 1.4 nM.

On to `CCc1cc(O[C@H]2CCc3cccc(-c4cccc(-n5ncc(C(=O)O)c5CC)n4)c32)ccc1C1CCN(S(C)(=O)=O)CC1` [Example 64-8, (S)-5-Ethyl-1-(6-(3-(3-ethyl-4-(1-(methylsulfonyl)piperidin-4-yl)phenoxy)-2,3-dihydro-1H-inden-4-yl)pyridin-2-yl)-1H-pyrazole-4-carboxylic acid], for which the concentration for a half-maximal effect (EC50) was not above 0.5 nM.

Still in this assay, the particulars now being: EC50 (nM).
Turning to `CCc1cc(O[C@H]2CCc3cccc(-c4cccc(-n5ncc(C(=O)O)c5CC)n4)c32)ccc1C1CCN(C(=O)OC(C)C)CC1` [Example 64-3, (S)-5-Ethyl-1-(6-(3-(3-ethyl-4-(1-(isopropoxycarbonyl)piperidin-4-yl)phenoxy)-2,3-dihydro-1H-inden-4-yl)pyridin-2-yl)-1H-pyrazole-4-carboxylic acid], the concentration giving a half-maximal response (EC50) is 1 nM.

Take `CCCOC(=O)N1CCC(c2ccc(O[C@H]3CCc4cccc(-c5cccc(-n6ncc(C(=O)O)c6CC)n5)c43)cc2CC)CC1` [Example 64-4, (S)-5-Ethyl-1-(6-(3-(3-ethyl-4-(1-(propoxycarbonyl)piperidin-4-yl)phenoxy)-2,3-dihydro-1H-inden-4-yl)pyridin-2-yl)-1H-pyrazole-4-carboxylic acid]: the 50% effective concentration (EC50) is not above 0.5 nM.

`C=CCOC(=O)N1CCC(c2ccc(O[C@H]3CCc4cccc(-c5cccc(-n6ncc(C(=O)O)c6CC)n5)c43)cc2CC)CC1` [Example 64-5, (S)-1-(6-(3-(4-(1-((Allyloxy)carbonyl)piperidin-4-yl)-3-ethylphenoxy)-2,3-dihydro-1H-inden-4-yl)pyridin-2-yl)-5-ethyl-1H-pyrazole-4-carboxylic acid]: the half-maximal effective concentration (EC50) was not above 0.5 nM.
